Holding throughout (format): functional
Assay [1] has as its system Staphylococcus aureus. Put plainly: In vitro minimal inhibitory concentration against Staphylococcus aureus.
Assay [2] deals with Escherichia coli. Put plainly: Minimal inhibitory concentration against Escherichia coli.
Assay [3] deals with Staphylococcus aureus. Put plainly: Minimal inhibitory concentration against Staphylococcus aureus (Range is 25-50 uM).
Assay [4] relates to Escherichia coli. Put plainly: Minimal inhibitory concentration against Escherichia coli (Range is 50-100 uM).
For assay [5], the system named is Staphylococcus aureus. Nature of the assay: Minimal inhibitory concentration against Staphylococcus aureus (Range is 50-100 uM).
Assay [6] concerns Staphylococcus aureus. Nature of the assay: Minimal inhibitory concentration against Staphylococcus aureus (Range is 12-25 uM).
The subject of assay [7] is Escherichia coli. Put plainly: Minimal inhibitory concentration against Escherichia coli (Range is 25-50 uM).

As a reminder, the MIC is the least concentration at which growth counts as inhibited. A higher MIC goes with a need for much substance.

≈ marks a conversion by molar mass, not a printed value.

For `O=C(O)CC/N=C(\S)NNC(=O)Cn1c(C2CCNCC2)nc2cc(Cl)c(Cl)cc21`, the MIC in assay [1] and in assay [2] was greater than 100 µM in each case.
`O=C1c2ccccc2C(=O)N1CCn1c(C2CCNCC2)nc2cc(Cl)c(Cl)cc21`: the MIC in assay [1] and in assay [2] was greater than 100 µM in each case.
With `O=C(Cn1c(C2CCNCC2)nc2cc(Cl)c(Cl)cc21)NNC(=O)Nc1ccc2c(c1)OCO2`, the values for the MIC in assay [3] and in assay [4] were 50 µM (≈ 25.3 µg/mL) and 100 µM (≈ 50.5 µg/mL), respectively.
With `O=C1c2ccccc2C(=O)N1CCCCCCn1c(C2CCNCC2)nc2cc(Cl)c(Cl)cc21`, the MIC in assay [1] and in assay [2] was greater than 100 µM in each case.
Take `Clc1cc2nc(C3CCNCC3)n(CCCCCn3cnc4ccccc43)c2cc1Cl`: the MIC in assay [4] and in assay [5] was 100 µM (≈ 45.6 µg/mL) each time.
Take `O=C1c2cc3ccccc3cc2C(=O)N1CCCCCn1c(C2CCNCC2)nc2cc(Cl)c(Cl)cc21`: the MIC in assay [1] and in assay [2] was greater than 100 µM throughout.
Consider `O=C(Cn1c(C2CCNCC2)nc2cc(Cl)c(Cl)cc21)N/N=C/c1ccc2ccccc2n1`, for which the figures for the MIC in assay [3] and in assay [2] were 50 µM (≈ 24.1 µg/mL) and greater than 100 µM, respectively.
For the molecule `Clc1cc2nc(C3CCNCC3)n(CCCCSc3[nH]cnc4ncnc3-4)c2cc1Cl`, the MIC in assay [1] and in assay [2] was greater than 100 µM in each case.
Take `O=C(Cn1c(C2CCNCC2)nc2cc(Cl)c(Cl)cc21)N/N=C/c1ccc[nH]1`: the MIC is 25 µM (≈ 10.5 µg/mL) in assay [6] and greater than 100 µM in assay [2].
For the molecule `O=C(Cn1c(C2CCNCC2)nc2cc(Cl)c(Cl)cc21)N/N=C/c1cccc([N+](=O)[O-])c1`, the MIC in assay [3] was 50 µM (≈ 23.8 µg/mL); in assay [2] it was greater than 100 µM.
Turning to `CN(C)c1ccc(N/C(S)=N/NC(=O)Cn2c(C3CCNCC3)nc3cc(Cl)c(Cl)cc32)cc1`, the MIC in assay [2] is greater than 100 µM; in assay [5], 100 µM (≈ 52 µg/mL).
For `O=C(Cn1c(C2CCNCC2)nc2cc(Cl)c(Cl)cc21)N/N=C/c1ccc2c(c1)OCCO2`, the MIC is greater than 100 µM in assay [2] and 100 µM (≈ 48.8 µg/mL) in assay [5].
As to `O=C1c2ccc([N+](=O)[O-])cc2C(=O)N1CCCCCn1c(C2CCNCC2)nc2cc(Cl)c(Cl)cc21`, the figures for the MIC in assay [1] and in assay [4] were greater than 100 µM and 100 µM (≈ 53 µg/mL), respectively.
For `O=C(Cn1c(C2CCNCC2)nc2cc(Cl)c(Cl)cc21)NNC(=S)Nc1ccccc1`, the MIC in assay [3] was 50 µM (≈ 23.9 µg/mL); in assay [4] it was 100 µM (≈ 47.7 µg/mL).
On to `O=C(Cn1c(C2CCNCC2)nc2cc(Cl)c(Cl)cc21)NNC(=O)Nc1ccccc1-c1ccccc1`, for which the MIC in assay [6] turned out to be 25 µM (≈ 13.4 µg/mL); in assay [7], 50 µM (≈ 26.9 µg/mL).
In the case of `O=C(Cn1c(C2CCNCC2)nc2cc(Cl)c(Cl)cc21)N/N=C/c1cc[n+]([O-])cc1`, the MIC in assay [1] and in assay [2] was greater than 100 µM each time.
As for `O=C(Cn1c(C2CCNCC2)nc2cc(Cl)c(Cl)cc21)N/N=C/c1c[nH]c2ccccc12`, the MIC in assay [3] is 50 µM (≈ 23.5 µg/mL); in assay [2], greater than 100 µM.
`O=S(=O)(NCCCCCn1c(C2CCNCC2)nc2cc(Cl)c(Cl)cc21)c1ccccc1`: the MIC in assay [1] and in assay [2] was greater than 100 µM each time.
As to `O=C1c2cc(Cl)c([N+](=O)[O-])cc2C(=O)N1CCCCCn1c(C2CCNCC2)nc2cc(Cl)c(Cl)cc21`, the MIC in assay [3] amounted to 50 µM (≈ 28.2 µg/mL); in assay [4] it was 100 µM (≈ 56.5 µg/mL).
Consider `COc1cc(/C=N/NC(=O)Cn2c(C3CCNCC3)nc3cc(Cl)c(Cl)cc32)cc(O)c1OC`, for which the figures for the MIC in assay [3] and in assay [2] were 50 µM (≈ 25.3 µg/mL) and greater than 100 µM, respectively.
In the case of `O=C(Cn1c(C2CCNCC2)nc2cc(Cl)c(Cl)cc21)NNC(=O)Nc1ccccc1`, the MIC in assay [2] was greater than 100 µM; in assay [5], 100 µM (≈ 46.1 µg/mL).
As to `O=C(Cn1c(C2CCNCC2)nc2cc(Cl)c(Cl)cc21)NNC(=O)Nc1ccc([N+](=O)[O-])cc1`, the MIC was 50 µM (≈ 25.3 µg/mL) in assay [3] and greater than 100 µM in assay [2].
Consider `O=C(Cn1c(C2CCNCC2)nc2cc(Cl)c(Cl)cc21)N/N=C/c1cccc(OC(F)(F)F)c1`, for which the MIC in assay [3] is 50 µM (≈ 25.7 µg/mL); in assay [2], greater than 100 µM.

These data come from ChEMBL document CHEMBL1147597, “Synthesis and biological evaluations of novel benzimidazoles as potential antibacterial agents” (Bioorg Med Chem Lett, 2004).
